Data set [1] deals with T1, Mushroom tyrosinase (monophenolase) (Agaricus bisporus, UniProt C7FF04).
T1 construct: purchased Sigma-Aldrich Co., St. Louis, MO, USA
Briefly: Mushroom tyrosinase monophenolase inhibition (L-tyrosine as substrate, 475 nm). The format is biochemical. As to conditions: for IC50: substrate L-tyrosine; for L-Tyrosine Inhibition Mode: Lineweaver–Burk plot. The procedure: (§1) Mushroom tyrosinase (EC 1. 14. 18. 1) (Sigma-Aldrich Co., St. Louis, MO, USA) activity was performed in accordance with the previously described method with subtle modification, using L-tyrosine and L-3,4-dihydroxylphenylalanine (L-DOPA) for monophenolase and diphenolase as substrates, respectively. Two hundred sixty units/mL of the tyrosinase stock solution was prepared at optimum pH 6.8 (0.05 M phosphate buffer). The inhibitors were initially dissolved in DMSO and diluted to several concentrations. […] Then, 10 μL of the enzyme was added to the mixture. Subsequent absorbance of DOPA chrome formation was recorded at 475 nm by means of an UV-Vis spectrophotometer (SpectraMax M3, Molecular Devices, San Jose, CA, USA) in a 96-well microplate at 30 °C. Three separate determinations were conducted for each assay.
(§2) The characteristic of tyrosinase inhibition was represented by Lineweaver−Burk double-reciprocal-plot and Dixon plot at specified concentrations of the substrates and inhibitors, respectively.

For data set [2], the target named is T2, Mushroom tyrosinase (diphenolase) (Agaricus bisporus, UniProt C7FF04).
T2 construct: purchased Sigma-Aldrich Co., St. Louis, MO, USA
Description: Mushroom tyrosinase diphenolase inhibition (L-DOPA as substrate, 475 nm). The format is biochemical. Conditions: for IC50: substrate L-DOPA. As for the experimental part:
as §1, §2

In data set [3] the target is T3, tyrosinase (monophenolase) (Agaricus bisporus, UniProt C7FF04).
T3 construct: purchased Sigma-Aldrich Co., St. Louis, MO, USA
Description: Time-dependent assays and progress curves (slow-binding kinetics, lag phase). The format is biochemical, mushroom. As to conditions: for Type of inhibitor (time-dependent inhibition): L-tyrosine, preincubation and progress curves. The procedure: The assays were carried out using tyrosinase (260 units) and L-tyrosine as a substrate of monophenolase in 0.25 M phosphate buffer (pH 6.8) at 30 °C. The enzyme activity was recorded sequentially for 30 min by a UV spectrophotometer. To evaluate the time-dependent inhibition and the kinetic parameters of tyrosinase, progress curves with 30 s intervals were measured at different concentrations of the inhibitor and substrate. The data were through the use of Sigma Plot (SPCC Inc., Chicago, IL, USA) as a nonlinear regression program to provide the respective parameters for each curve; A (absorbance at 475 nm), vi (initial rate), vss (steady-state rate), kobs (apparent first-order rate constant for the transition from vi to vss), and Kiapp (apparent Ki) in accordance with the following Equations (2)–(5). (2) A=vsst+vi − vss1 −exp−kobst/kobs (3) v/v0=exp (−kobst) (4) kobs=k4 (1+[I]/Kiapp) (5) Kiapp=k4/k3
The value of −kobs was estimated by a slope of the straight line from the plot of the natural log of the residual enzyme activity vs. the preincubation time. The plot of kobs vs. the concentration of inhibitors gave the values of k3, k4, and Kiapp on the basis of Morrison and Walsh’s method.

For data set [4], the target named is T4, tyrosinase (Agaricus bisporus, UniProt C7FF04).
T4 construct: purchased Sigma-Aldrich Co., St. Louis, MO, USA
Briefly: HPLC analysis of tyrosinase inhibition with N-acetyl-L-tyrosine as substrate. It is filed as biochemical. As to conditions: HPLC at 275 nm. The procedure:
The HPLC analysis of tyrosinase inhibition was carried out by giving minor alterations in the previous procedure with N-acetyl-L-tyrosine as a substrate. The 4.5 mM of the substrate was prepared in the 50 mM phosphate buffer (pH 6.8). Then, 670 units/mL tyrosinase (Sigma-Aldrich Co., St. Louis, MO, USA) solution and several concentrations of the inhibitor solution were arranged. The N-acetyl-L-tyrosine was observed on 275 nm with 4.6 min of tR by eluting the mobile phase consisting of A (H2O) and B (acetonitrile, ACN), with the following isocratic condition: 0–8 min and A/B = 90:10 (v/v). After 20 μL of the sample solution was subjected to the HPLC (Pack ODS-AQ C18 column, YMC) system, the reactions were measured every 15 min. All procedures were carried out at room temperature.

Data set [5] has as its target T4, tyrosinase. Description: Fluorescence quenching measurement of binding affinity to tyrosinase. As for the experimental part:
To measure fluorescence from the tyrosinase enzyme, 10 μL of 260 unit/mL enzyme solution with 165 μL of phosphate buffer (0.05 M) were added into 96-well black immunoplates. Afterward, 5 μL of various concentrations (2.5–20 μM) of inhibitor was added into each well. All fluorescence spectra were obtained by a SpectraMax M3 spectrophotometer (Molecular Devices, San Jose, CA, USA). The spectra were measured from 300 to 400 nm with emission slits regulated to 2.0 nm, and the excitation wavelength was 265 nm. The Stern–Volmer quenching constant (KSV) was estimated using Equation (6). All experiments were carried out in triplicate, and the mean values were calculated. (6) […] where F0 and F are the fluorescence intensities in the absence and presence of quencher (Q). KSV is the Stern–Volmer quenching constant [L M^−1]. For static quenching, the correlation between the fluorescence intensity and the concentration of the quencher for the series of reactions can be expressed by Equation (7). (7) log[(F0 − F)/F]=logKA+nlog[Q]f
F0 and F are the fluorescence intensities in the absence and presence of inhibitor; KA is the binding constant; n is the number of binding sites of the enzyme; Qf is the concentration of inhibitor [24].

For data set [6], the system named is B16F10 mouse melanoma cells. Description: Melanin content in α-MSH-stimulated B16F10 melanoma cells. It is filed as cell-based. Conditions: B16 cells, 48 h in the presence of α-MSH, read-out: Melanin Synthesis IC50. The procedure:
(§3) The B16F10 mouse melanoma cell (American Type of Culture Collection, VA, USA) were cultured as previously reported. Briefly, the cells were incubated in DMEM containing 10% fetal bovine serum and 1% penicillin/streptomycin (Sigma–Aldrich, St. Louis, MO, USA) at 37 °C in a 5% CO2 humidified incubator.
For the analysis of melanin content accumulated in the cytosol, B16F10 mouse melanoma cells were seeded on to six-well plates at a density of 1 × 10^5 cells per well, and cultured for 24 h. Then, the cells were treated with 1 μM of α-MSH (Sigma–Aldrich, St. Louis, MO, USA) in the presence or absence of different concentrations of compound 1. Thereafter, the cells were collected using trypsin-EDTA (Lonza, Walkersville, MD, USA) and dissolved in 1 N NaOH, including 10% DMSO at 65 °C for 24 h. The melanin content was determined at 415 nm by a Bio-Rad microplate reader.

Data set [7] has as its system B16F10 mouse melanoma cells. Description: L-DOPA oxidation (cellular tyrosinase) in α-MSH-treated B16F10 melanoma cells. It is filed as cell-based. Conditions: B16 cells, 48 h in the presence of α-MSH. The procedure: as §3
B16F10 mouse melanoma cells were seeded on to 6-well plates at a density of 1 × 10^5 cells per well and cultured for 24 h. Then, the cells were treated with α-MSH (1 μM) in the presence or absence of different concentrations of compound 1, followed by incubation for 48 h. The incubated cells were collected and dissolved with 1% Triton X-100 solution for 1 h on ice. Then, the cells were cultured for 4 h with 100 μL (2 mg/mL) L-DOPA in a 5% CO2 humidifying incubator at 37 °C condition. After that, by using a microplate reader (Bio-Rad), absorbance at 490 nm was measured.

For data set [8], the system named is B16F10 mouse melanoma cells. Briefly: Cell viability assay (MTT) in B16F10 melanoma cells. It is filed as cell-based. As to conditions: B16 cells, 48 h. As for the experimental part:
as §3
The cell viability assay of the B16F10 mouse melanoma cells were conducted with subtle variation in previous methods. The cells were incubated in 96-well plates overnight. […] After incubation, 5 μg/mL of MTT solution was added to the each well and the cells were incubated for 3 h. After the medium was removed, the cells were treated with dimethyl sulfoxide (DMSO) and cultured at room temperature for 20 min. The absorbance at 595 nm was measured on a Bio-Rad microplate reader (Hercules, CA, USA).

The mark [9] stands for this setting: pH 6.8, 30 °C, read-out: L-Tyrosine IC50 Value (monophenolase).
[10] abbreviates: pH 6.8, 30 °C, read-out: L-DOPA IC50 Value (diphenolase).
[11] abbreviates: slow-binding, L-tyrosine as substrate.

Read-outs that look alike come from different tables or passages of the source.

T3 sequence (C7FF04 1-392): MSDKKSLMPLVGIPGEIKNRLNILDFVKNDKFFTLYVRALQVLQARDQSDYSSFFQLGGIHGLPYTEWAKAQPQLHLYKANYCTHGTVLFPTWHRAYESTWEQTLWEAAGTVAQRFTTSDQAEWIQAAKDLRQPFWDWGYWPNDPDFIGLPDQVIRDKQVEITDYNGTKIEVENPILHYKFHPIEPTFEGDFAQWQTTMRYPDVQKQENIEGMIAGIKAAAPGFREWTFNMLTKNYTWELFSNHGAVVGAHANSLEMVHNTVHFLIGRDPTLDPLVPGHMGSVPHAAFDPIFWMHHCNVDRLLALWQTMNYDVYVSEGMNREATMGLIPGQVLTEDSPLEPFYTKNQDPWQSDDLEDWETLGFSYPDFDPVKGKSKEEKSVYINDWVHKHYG
T1 sequence (C7FF04 1-392): as above
T2 sequence (C7FF04 1-392): as above
T4 sequence (C7FF04 1-392): as above

As a reminder, the IC50 is the concentration needed to halve the response being measured. Take `O=C1C=C(c2ccc(O)cc2O[C@@H]2O[C@H](CO)[C@@H](O)[C@H](O)[C@H]2O)C(Cc2ccc(O)cc2)O1` (stereo partly shown) [Compound 2, Kuzubutenolide A]: the IC50 in data set [1] (setting [9]) is greater than 200 µM; in data set [1] (read-out: IC50 monophenolase), 1500 µM; in data set [2] (setting [10]), greater than 200 µM; in data set [2] (read-out: IC50 diphenolase) it was 1900 µM.
For the molecule `O=C1C=C(c2ccc(O)cc2O)C(Cc2ccc(O)cc2)O1` (stereo not shown) [Compound 1, Puerol A], the Reversibility of inhibition entry in data set [1] (initial velocity vs tyrosinase and inhibitor concentrations) is “reversible inhibitor”. Further, the Ki in data set [1] (monophenolase, Dixon plot) amounted to 0.87 µM; in data set [2] (diphenolase, Dixon plot), 1.95 µM; in data set [3] (Kiapp = k4/k3) it was 0.107 µM. The “L-Tyrosine Inhibition Mode” value in data set [1] (monophenolase) was “Competitive”; in data set [1] (monophenolase, listed as puerol A) it was “competitively”. The IC50 in data set [1] (setting [9]) came to 2.2 ± 0.2 µM; in data set [2] (setting [10]), 3.88 ± 0.3 µM; in data set [6], 11.4 ± 1.2 µM; in data set [7] it was 23.9 ± 1.4 µM. In data set [2] (diphenolase, Lineweaver–Burk plot), the “L-DOPA Inhibition Mode” value is “competitive inhibition mode”. The “Type of inhibitor (time-dependent inhibition)” value in data set [3] was “simple, reversible, slow-binding inhibitor”; in data set [3] (listed as Puerol A) it was “reversible, competitive, simple slow-binding inhibitor”; in data set [3] (listed as puerol A), “competitive inhibitor and reversible, simple slow-binding inhibitor”. The “lag phase of L-tyrosine oxidation” value in data set [3] (inhibitor 0.5–8.0 μM, 60 s without inhibitor) is reported as “up to 600 s”. The molecule further displayed a k3 in data set [3] (setting [11]) of 465 M⁻¹ s⁻¹. Moreover, the k4 in data set [3] (setting [11]) was determined as 0.003 min⁻¹. Also, the “oxidation of N-acetyl-L-tyrosine blocked” value in data set [4] (5 μM) was 56%; in data set [4] (10 μM) it was 86%; in data set [4] (20 μM, listed as Puerol A), “completely inhibited”; in data set [4] (20 μM, listed as puerol A), 95%. Further, the “n (number of binding sites)” value in data set [5] (from log[(F0 − F)/F] plot) is recorded as “one”. In addition, the “KSV (Stern–Volmer quenching constant)” value in data set [5] (inhibitor 2.5–20 μM, excitation 265 nm, emission 300–400 nm) is 145000 L/mol. Moreover, the “Cytotoxicity LD50” value in data set [8] is 137.8 ± 1.2 µM.
As to `O=c1cc(CO)occ1O` [Kojic acid, reference compound], the half-inhibitory concentration (IC50) in data set [6] and in data set [7] was greater than 500 µM throughout. Further, the “Cytotoxicity LD50” value in data set [8] is greater than 500 µM.

For the origin of these results see article PMC7287670, “Tyrosinase Inhibition and Kinetic Details of Puerol A Having But-2-Enolide Structure from Amorpha fruticosa” (Molecules, 2020).
